# Source: patent US20240263153A1, “INTEGRASE COMPOSITIONS AND METHODS” (Flagship Pioneering Innovations Vi, LLC, priority 2021, published 2024)
# Tested on: mouse liver
# Test: LNP-mediated delivery of RNA to the mouse liver (luciferase activity of liver homogenate)
# Type: in vivo
# Settings: C57BL6 male mice, i.v. 1 mg/kg, Firefly luciferase mRNA-LNPs, liver at 6, 24, 48 hours
# Description: To measure the effectiveness of LNP-mediated delivery of firefly luciferase containing particles to the liver, LNPs were formulated and characterized as described herein and tested in vitro prior to administration to mice. C57BL6 male mice (Charles River Labs) at approximately 8 weeks of age were dosed with LNPs via intravenous (i.v.) route at 1 mg/kg. Vehicle control animals were dosed i.v. with 300 μL phosphate buffered saline. Mice were injected via intraperitoneal route with dexamethasone at 5 mg/kg 30 minutes prior to injection of LNPs. Tissues were collected at necropsy at or 6, 24, 48 hours after LNP administration with a group size of 5 mice per time point. Liver and other tissue samples were collected, snap-frozen in liquid nitrogen, and stored at −80° C. until analysis.
# Frozen liver samples were pulverized on dry ice and transferred to homogenization tubes containing lysing matrix D beads (MP Biomedical). Ice-cold 1× luciferase cell culture lysis reagent (CCLR) (Promega) was added to each tube and the samples were homogenized in a Fast Prep-24 5G Homogenizer (MP Biomedical) at 6 m/s for 40 seconds. The samples were transferred to a clean microcentrifuge tube and clarified by centrifugation. Prior to luciferase activity assay, the protein concentration of liver homogenates was determined for each sample using the Pierce™ BCA Protein Assay Kit (ThermoFisher Scientific) according to the manufacturer's instructions. Luciferase activity was measured with […] (total protein) of liver homogenate using the luciferase assay reagent (Promega) according to manufacturer's instructions using an i3X SpectraMax plate reader (Molecular Devices). […] Reporter activity by the various formulations followed the ranking LIPIDV005>LIPIDV004>LIPIDV003. RNA expression was transient and enzyme levels returned near vehicle background by 48 hours. Post-administration. This assay validated the use of these ionizable lipids and their respective formulations for RNA systems for delivery to the liver.
row,SMILES,luciferase reporter activity in liver samples
1,"CCCCC/C=C\C/C=C\CCCCCCCC(=O)OCC(COC(=O)CCC(OCCCCCCCC)OCCCCCCCC)COC(=O)OCCCN(CC)CC (stereo not drawn) [LIPIDV003, (9Z,12Z)-3-((4,4-bis(octyloxy)butanoyl)oxy)-2-((((3-(diethylamino)propoxy)carbonyl)oxy)methyl)propyl octadeca-9,12-dienoate]",LIPIDV005>LIPIDV004>LIPIDV003
2,"CCCCCCCCCOC(=O)CCCCCCCN(CCO)CCCCCCCC(=O)OC(CCCCCCCC)CCCCCCCC [LIPIDV004, Heptadecan-9-yl 8-((2-hydroxyethyl)(8-(nonyloxy)-8-oxooctyl)amino)octanoate]",LIPIDV005>LIPIDV004>LIPIDV003
3,CCCCCCCC(=O)N(CCCN(C)C)C(CCCCCCCCC(=O)OC(CCCCCC)CCCCCC)CCCCCCCCC(=O)OC(CCCCCC)CCCCCC [LIPIDV005],LIPIDV005>LIPIDV004>LIPIDV003
